Measured values published in paper PMC9301488, “Expression, Characterization, Fermentation, Immobilization, and Application of a Novel Esterase Est804 From Metagenomic Library in Pesticide Degradation” (Frontiers in Microbiology, 2022).

Test system: T1, Est804
T1 construct: expressed in E. coli BL21(DE3); lysate supernatant called crude, His-tag purification described for SDS-PAGE
Assay: release of p-nitrophenol at […] nm, Lineweaver-Burk plot
Format: biochemical, soil metagenome
Settings: free enzyme; 0.0-5.0 mM substrate; Britton-Robinson buffer pH 6.8, 40 °C (standard conditions); crude lysate supernatant mentioned, purity of the kinetic sample not clear

In the case of `CC(=O)Oc1ccc([N+](=O)[O-])cc1` [ρ-nitrophenyl acetate], the Km is reported as 613 µM.
